Results reported in patent US20260070921A1, “COMPOUND, ENDOPLASMIC RETICULUM STRESS INHIBITOR, PHARMACEUTICAL PRODUCT, OPHTHALMIC AGENT, EYE DROPS, COMPOSITION, AND METHOD FOR PRODUCING COMPOUND” (KYOTO UNIVERSITY, priority 2022, published 2026).
pEC50: −log10 of the molar value.

Columns and labels:
HEK293 cells [1] = assay: Tunicamycin assay (cell viability under ER stress, WST-8); type: cell-based; set-up: key to Efficacy 5 μM (ER stress inhibition activity) / Efficacy 25 μM (ER stress inhibition activity) / Efficacy 100 μM (ER stress inhibition activity): “−” indicates no activity; “+” indicates weak activity; “++” indicates strong activity; settings: for Efficacy 25 μM (ER stress inhibition activity): compound 25 μM 12 to 18 h; for Efficacy 25 μM (ER stress inhibition activity) / Efficacy 100 μM (ER stress inhibition activity) / Efficacy 5 μM (ER stress inhibition activity): then tunicamycin 5 μg/mL 48 h; for Efficacy 100 μM (ER stress inhibition activity): compound 100 μM 12 to 18 h; for Efficacy 5 μM (ER stress inhibition activity): compound 5 μM 12 to 18 h
Description: HEK293 cells were seeded in 96-well plates ([…]) and incubated at 37° C. for 2 hours. The medium was then replaced with 100 μL of DMEM ([…]) containing self-assembling chemicals (20 or more compounds, including compounds of the present disclosure) and 1% DMSO. After incubation with any one of compounds 1 to 6 at a given concentration for 12 to 18 hours, HEK293 cells were treated with tunicamycin (5 μg/mL) or thapsigargin (10 μM) for 48 hours, and cell viability was measured using a WST-8 cell counting kit (Dojindo Laboratories).
Produced compounds XD8 to XD28 were subjected to a tunicamycin assay in the same manner as in Examples 1 to 9. Specifically, HEK293 cells were first seeded in a 96-well plate (1×10^4 cells/well) and incubated at 37° C. for 2 hours. The medium was then replaced with 100 μL of DMEM (10% FBS) containing a self-assembling chemical (each of compounds XD8 to XD28) and […]. After incubation with any of compounds XD8 to XD28 at a concentration of 5.0 μM, 25 μM, or 100 μM for 12 to 18 hours, HEK293 cells were treated with tunicamycin (5 μg/mL) for 48 hours, followed by measuring cell viability by using a WST-8 cell counting kit (Dojindo Laboratories).

HEK293 cells [2] = assay: Fluorescence imaging of self-assemblies in living cells (DCVJ); type: cell-based; settings: 100 μM, DCVJ 1.0 μM, 8 h
Description: HEK293 cells were incubated with compound 1, 4, 5, or 6 (25 or 100 μM) in the presence of 1.0 μM DCVJ in DMEM (10% FBS). Fluorescence and bright-field images were taken with a CV1000 confocal microscope equipped with a 40× objective lens (Yokogawa Electric Corporation).
The ability of compound 1 and its derivatives, compounds 4 to 6, to form assemblies was also monitored in living cells. […] HEK293 cells were treated with compound 1, 4, 5, or 6 (25 μM or 100 μM) and 1.0 μM of DCVJ for 8 hours. Fluorescence and bright-field images were taken with a CV1000 confocal microscope. HEK293 cells were treated with compound 1, 4, 5, or 6 (25 or 100 μM) and DCVJ (1.0 μM) for 8 hours and observed with a confocal microscope. […] The self-assembling ability of the molecules of compound 6 may be due to its cellular activity at that concentration, even at 25 μM. […] To further support the importance of self-organization formation in cellular activity, dose-response curves for compounds 1 and 6 were determined. The biological activity of the compounds' molecular assembly is expected to be more cooperative than that of the monomer and to show a steeper dose-response curve (Reference Material 18 below). […] Compound 6 is referred to as “selfonamide” below. […] P. A High-Throughput Screen for Aggregation-Based Inhibition in a Large Compound Library. J Med Chem 2007, 50 (10), 2385-2390. https://doi.org/10.1021/jm061317y.

HEK293 cells [3] = assay: Cell viability assay without ER stress inducer (cytotoxicity, WST-8); type: cell-based; settings: 64 h
Description: HEK293 cells were treated with compound 1, compound 4, compound 5, or compound 6 (25 μM or 100 μM, respectively) for 64 hours. The vertical axis represents relative cell viability (unit: %), and the horizontal axis represents concentration (unit: μM). Cell viability was measured using a WST-8 cell counting kit. Error bars represent s.d. (n=3).
(§1) FIG. 31 is a graph showing the results of a cell viability assay using bafilomycin A1. HEK293 cells were treated with bafilomycin A1 in DMEM (10% FBS) for 48 hours. The vertical axis represents relative cell viability (unit: %), and the horizontal axis represents the concentration of bafilomycin A1 (unit: μM). Cell viability was measured using a WST-8 cell counting kit. Error bars represent s.d. (n=3).
as §1, with “32” for “31”, “MG132.” for “bafilomycin A1.”, “MG132” for “bafilomycin A1”, “t),” for “%),”
The term “Efficacy” denotes ER (endoplasmic reticulum) stress inhibition activity. The term “Toxicity” denotes cytotoxicity. In the ER stress inhibition activity (Efficacy), “−” indicates no activity, “+” indicates weak activity, and “++” indicates strong activity. In addition, “XD7” in Table 1 below represents compound 6. That is, XD7 and compound 6 are the same compound.

HEK293 cells [4] = assay: Flow cytometry of intracellular assemblies of compound 1 with endocytosis inhibitors; type: cell-based; settings: compound 1 100 μM; chloroquine 100 μM, chlorpromazine 20 μM; 16 h
Description: HEK293 cells were seeded in 12-well plates at 3×10^5 cells/well. After 2 hours of incubation at 37° C., cells were treated with compound 1 (100 μM) and 9-(2,2-dicyanovinyl)julolidine (DCVJ, 1.0 μM) in the presence or absence of chloroquine (100 μM), chlorpromazine (20 μM), and genistein ([…]) in DMEM (10% FBS) at 37° C. for 16 hours. Cells were harvested by incubation in 2 mM EDTA/PBS (pH of 7.4) for 10 minutes. Fluorescence of the cells was measured using a BD FACSAria II and analyzed with BD FACSDiva software.

[5] = Dynamic light scattering (DLS) of self-assemblies; type: physicochemical
Excerpt: In the graphs on the left, the vertical axis “Z-ave. (nm)” represents the average particle size. In the graphs on the right, the vertical axis “Derived Count Rate (kcps)” represents the derived count rate. The horizontal axis represents the molar concentration (PM) of PBS (pH of 7.4) and DMEM (10% FBS). Error bars represent s.d. (n=3).
“Z-ave.” represents the average size of particles. Error bars represent s.d. (n=3).
“Z-average” represents the average size of particles. Error bars represent s.d. (n=3).

[6] = even at higher concentrations, tunicamycin 5.0 μg/mL 48 h

Compound	Efficacy 25 μM (ER stress inhibition activity) (HEK293 cells [1])	Efficacy 100 μM (ER stress inhibition activity) (HEK293 cells [1])	Efficacy 5 μM (ER stress inhibition activity) (HEK293 cells [1])	also measured
CCCCOc1ccc2c(c1)sc1c(=O)nc3nc(Nc4ccc(S(=O)(=O)NC(=N)N)cc4)ccn3c12 [XD26]	+	++		
CCCCOc1ccc2c(c1)sc1c(=O)nc3nc(Nc4ccc(S(N)(=O)=O)cc4)ccn3c12 [XD16]	−	−	−	
C[C@H](CCC(=O)NCCS(=O)(=O)O)[C@H]1CC[C@H]2[C@@H]3[C@@H](O)C[C@@H]4C[C@H](O)CC[C@]4(C)[C@H]3CC[C@]12C [TUDCA, reference compound]				Rescue from tunicamycin-induced cell death (secondary screen) (HEK293 cells [1]; [6]): little effect
NS(=O)(=O)c1ccc(Nc2ccn3c(n2)nc(=O)c2sc4cc(OCc5ccccc5)ccc4c23)cc1 [XD18]	−	−	−	
Cc1ccc2c(c1)sc1c(=O)nc3nc(Nc4ccc(S(N)(=O)=O)cc4)ccn3c12 [compound 5]				Size of assemblies/particles in living-cell imaging (HEK293 cells [2]): 5 µm; Cytotoxicity (HEK293 cells [3]; at 25 μM): no obvious cytotoxicity; Cytotoxicity (HEK293 cells [3]; at 100 μM): slightly reduced cell viability; Ability to rescue cells from tunicamycin-induced ER stress (HEK293 cells [1]; tunicamycin 5.0 μg/mL 48 h): lost activity
CCOc1ccc2c(c1)sc1c(=O)nc3nc(Nc4ccc(S(N)(=O)=O)cc4)ccn3c12 [XD14]	−	−	−	
NS(=O)(=O)c1ccc(Nc2ccn3c(n2)nc(=O)c2sc4cc([N+](=O)[O-])ccc4c23)cc1 [XD9]	++	+	−	
N=C(N)NS(=O)(=O)c1ccc(Nc2ccn3c(n2)nc(=O)c2sc4cc(OCc5ccccc5)ccc4c23)cc1 [XD28]		++		
NS(=O)(=O)c1ccc(Nc2ccn3c(n2)nc(=O)c2sc4cc(Br)ccc4c23)cc1 [XD12]	+	++	−	
N=C(N)NS(=O)(=O)c1ccc(Nc2ccn3c(n2)nc(=O)c2sc4cc([N+](=O)[O-])ccc4c23)cc1 [XD20]		+		
NS(=O)(=O)c1ccc(Nc2ccn3c(n2)nc(=O)c2sc4cc(F)c(F)cc4c23)cc1 [XD13]	++	++	−	
CN(C)CCCN1c2ccccc2Sc2ccc(Cl)cc21 [chlorpromazine]				Reduction of average DCVJ signal (intracellular assemblies of compound 1) (HEK293 cells [4]): about 30%
CCCOc1ccc2c(c1)sc1c(=O)nc3nc(Nc4ccc(S(N)(=O)=O)cc4)ccn3c12 [XD15]	−	−	−	
CCCCCCOc1ccc2c(c1)sc1c(=O)nc3nc(Nc4ccc(S(N)(=O)=O)cc4)ccn3c12 [XD17]	−	+	−	
NS(=O)(=O)c1ccc(Nc2ccnc(N(C(=O)c3sc4cc(F)ccc4c3Cl)C(=O)c3sc4cc(F)ccc4c3Cl)n2)cc1 [TD-4C8]				Rescue from tunicamycin-induced cell death (secondary screen) (HEK293 cells [1]; compound 50 μM, tunicamycin 5.0 μg/mL 48 h): significantly rescued cells from tunicamycin-induced cell death
O=c1nc2nc(Nc3ccccc3)ccn2c2c1sc1cc(F)ccc12 [compound 2]				Self-assembly activity (self-assembling ability) [5]: confirmed to have self-assembly activity; Ability to rescue cells from tunicamycin-induced ER stress (HEK293 cells [1]; tunicamycin 5.0 μg/mL 48 h): eliminated the ability of the compounds to rescue cells
NS(=O)(=O)c1ccc(Nc2ccn3c(n2)nc(=O)c2sc4cc(Cl)ccc4c23)cc1 [XD8]	+	++	−	
O=C(O)CCCc1ccccc1 [PBA, reference compound]				Rescue from tunicamycin-induced cell death (secondary screen) (HEK293 cells [1]; [6]): little effect; pEC50 (HEK293 cells [1]; tunicamycin 5.0 μg/mL 48 h, read-out: EC50 (dose-response curve, Hill equation)): 3.32
CCCOc1ccc2c(c1)sc1c(=O)nc3nc(Nc4ccc(S(=O)(=O)NC(=N)N)cc4)ccn3c12 [XD25]	++	+		
COc1cc2sc3c(=O)nc4nc(Nc5ccc(S(N)(=O)=O)cc5)ccn4c3c2cc1OC [XD11]	−	++	−	
CCN(CC)CCCC(C)Nc1ccnc2cc(Cl)ccc12 (centres unmarked) [chloroquine]				Reduction of average DCVJ signal (intracellular assemblies of compound 1) (HEK293 cells [4]): about 30%
COc1ccc2c(c1)sc1c(=O)nc3nc(Nc4ccc(S(=O)(=O)NC(=N)N)cc4)ccn3c12 [XD21]	++	++		
CS(=O)(=O)c1ccc(Nc2ccn3c(n2)nc(=O)c2sc4cc(F)ccc4c23)cc1 [compound 3]				Self-assembly activity (self-assembling ability) [5]: confirmed to have self-assembly activity; Ability to rescue cells from tunicamycin-induced ER stress (HEK293 cells [1]; tunicamycin 5.0 μg/mL 48 h): eliminated the ability of the compounds to rescue cells
NS(=O)(=O)c1ccc(Nc2ccn3c(n2)nc(=O)c2sc4ccccc4c23)cc1 [compound 4]				Cytotoxicity (HEK293 cells [3]; up to 100 μM): no obvious cytotoxicity
NS(=O)(=O)c1ccc(Nc2ccn3c(n2)nc(=O)c2sc4cc5c(cc4c23)OCO5)cc1 [XD10]	−	−	−	
